Where no end group is shown, it is not given here. [ ]: non-standard residue; d: D form. The star is where a group is joined. Dihydrocaffeoyl = O=C(CCc1ccc(O)c(O)c1)*; Dopa = N[C@@H](Cc1ccc(O)c(O)c1)C(=O)O; Hyp = O=C(O)[C@@H]1C[C@@H](O)CN1
System: xylene-induced ear swelling
Assay: Mouse ear swelling model (xylene-induced)
Format: in vivo, BALB/c mice
Conditions: for Swelling rate: (right ear weight - left ear weight)/left ear weight x 100, about 0.1 g gel (peptide 0.5 mg/g) or Dex cream on right ear 1 hour before 20 μL xylene, ears taken 40 minutes after xylene, 5 mice per group; for anti-inflammatory effects compared with the other peptides tested: xylene mouse ear swelling, topical gels 0.5 mg/g
Description: 35 Health male BALB/c mice with 6-8 weeks old and average body weight of 18-25 g were supplied from Changzhou Cvens Experimental Animal Co., Ltd. and housed and cared for about 1 week prior to the experiment. The housing temperature was around 25 to 27 ° C. with 74% humidity, alternating 12-hour periods of light and darkness, and free access to food and water. The mice were randomly divided into 7 groups as described in Table 5 below, with 5 mice in each group. [table] Dexamethasone acetate cream (Dex cream; 5 mg/10 g (which means that there was 5 mg Dex contained in 10 g of the cream), Fuyuan Pharmaceutical Co. Ltd., Anhui, China) was used as positive control. The left ear of each mouse was used as an autologous control. The right ear of each mouse was treated with the above compounds in the stated concentrations. About 0.1 g of the various gels, and Dex cream were applied to the right ear of mice in each group, both inside and outside. The blank gel base was applied on the ears in the model groups. After 1 hour, 20 μL of xylene (Shanghai Aladdin Bio-Chem Technology Co., Ltd.) was applied to the same ear of each mouse. The mice were sacrificed by cervical dislocation 40 minutes after xylene application. The left and right ears were cut off. An EMS skin biopsy punch with a diameter of 8 mm was used to take a piece of the ear from the same site on both ears. The weights were recorded, and the swelling rate was calculated as a percentage according to the following formula: (right ear weight−left ear weight)/left ear weight×100

| Substance | Swelling rate [%] | anti-inflammatory effects compared with the other peptides tested |
| --- | --- | --- |
| 58 (KAKPS[Dopa][Hyp][Hyp]T-dopamine) [compound 58] | 43 | stronger than the other peptide compounds tested |
| 18 (Dihydrocaffeoyl-AKPS[Dopa][Hyp][Hyp]T[Dopa]K) [compound 18] | 57 |  |
| 15 (Dihydrocaffeoyl-AKPS[Dopa][Hyp]T[Dopa][Hyp]K) [compound 15] | 63 |  |
| 22 (Dihydrocaffeoyl-KPS[Dopa][Hyp]TA[Hyp]K) [compound 22] | 40 | stronger than the other peptide compounds tested |

From patent US20240218016A1, “PEPTIDES AND THEIR USE IN THE TREATMENT OF INFLAMMATION” (Shenzhen Institutes of Advanced Technology, priority 2019, published 2024)
